Assays:
[1] = target: mouse TAAR1 (Mus musculus (Mouse), UniProt Q923Y8); assay: Radioligand binding assay on mouse TAAR1; conditions: mouse TAAR1 (first value of the cell), HEK-293 membranes; read-out: Ki (μM) mouse/rat
Description: (§1) Construction of TAAR Expression Plasmids and Stably Transfected Cell Lines
(§2) For the construction of expression plasmids the coding sequences of human, rat and mouse TAAR 1 were amplified from genomic DNA essentially as described by Lindemann et al.. The Expand High Fidelity PCR System (Roche Diagnostics) was used with 1.5 mM Mg^2+ and purified PCR products were cloned into pCR2.1-TOPO cloning vector (Invitrogen) following the instructions of the manufacturer. PCR products were subcloned into the pIRESneo2 vector (BD Clontech, Palo Alto, Calif.), and expression vectors were sequence verified before introduction in cell lines.
(§3) HEK293 cells (ATCC #CRL-1573) were cultured essentially as described by Lindemann et al. (2005). For the generation of stably transfected cell lines HEK293 cells were transfected with the pIRESneo2 expression plasmids containing the TAAR coding sequences (described above) with Lipofectamine 2000 (Invitrogen) according to the instructions of the manufacturer, and 24 hrs post transfection the culture medium was supplemented with 1 mg/ml G418 (Sigma, Buchs, Switzerland). After a culture period of about 10 d clones were isolated, expanded and tested for responsiveness to trace amines (all compounds purchased from Sigma) with the cAMP Biotrak Enzyme immunoassay (EIA) System (Amersham) following the non-acetylation EIA procedure provided by the manufacturer.
Radioligand Binding Assay on Mouse TAAR1
Membrane Preparation and Radioligand Binding.
(§4) HEK-293 cells stably expressing mouse TAAR1 were maintained at 37° C. and 5% CO2 in DMEM high glucose medium, containing fetal calf serum (10%, heat inactivated for 30 min at 56° C.), penicillin/streptomycin (1%), and 375 μg/ml geneticin (Gibco). Cells were released from culture flasks using trypsin/EDTA, harvested, washed twice with ice-cold PBS (without Ca^2+ and Mg^2+), pelleted at 1,000 rpm for 5 min at 4° C., frozen and stored at −80° C. Frozen pellets were suspended in 20 ml HEPES-NaOH (20 mM, pH 7.4) containing 10 mM EDTA and homogenized with a Polytron (PT 6000, Kinematica) at 14,000 rpm for 20 s. The homogenate was centrifuged at 48,000×g for 30 min at 4° C. Subsequently, the supernatant was removed and discarded, and the pellet resuspended in 20 ml HEPES-NaOH (20 mM, pH 7.4) containing 0.1 mM EDTA using the Polytron (20 s at 14,000 rpm). This procedure was repeated and the final pellet resuspended in HEPES-NaOH containing 0.1 mM EDTA and homogenized using the Polytron. Typically, aliquots of 2 ml membrane portions were stored at −80° C. With each new membrane batch the dissociation constant (Kd) was determined via a saturation curve. […] All compounds were tested at a broad range of concentrations (10 pM to 10 μM) in duplicates. […] The 96 deep well plates were incubated for 1 hr at 4° C. Incubations were terminated by rapid filtration through Unifilter-96 plates (Packard Instrument Company) and glass filters GF/C (Perkin Elmer) presoaked for 1 hr in polyethylenimine (0.3%) and washed 3 times with 1 ml of cold binding buffer. After addition of 45 μl of Microscint 40 (PerkinElmer) the Unifilter-96 plate was sealed and after 1 hr the ratioactivity counted using a TopCount Microplate Scintillation Counter (Packard Instrument Company).

[2] = target: rat TAAR1 (Rattus norvegicus (Rat), UniProt Q923Y9); assay: Radioligand binding assay on rat TAAR1; conditions: rat TAAR1 (second value of the cell), HEK-293 membranes; read-out: Ki (μM) mouse/rat
Sequence of rat TAAR1 (Q923Y9 whole entry): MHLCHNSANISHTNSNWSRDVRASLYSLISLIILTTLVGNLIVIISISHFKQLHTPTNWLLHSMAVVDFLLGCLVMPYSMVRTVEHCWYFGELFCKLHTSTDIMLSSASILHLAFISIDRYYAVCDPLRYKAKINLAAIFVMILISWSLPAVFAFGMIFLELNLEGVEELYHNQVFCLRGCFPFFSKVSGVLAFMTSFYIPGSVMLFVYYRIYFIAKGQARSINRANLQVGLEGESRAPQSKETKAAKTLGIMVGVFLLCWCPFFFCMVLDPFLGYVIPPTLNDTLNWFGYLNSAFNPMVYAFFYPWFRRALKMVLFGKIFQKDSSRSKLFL
Description: as §1, §2, §3
Radioligand Binding Assay on Rat TAAR1
Membrane Preparation and Radioligand Binding
as §4, with “rat” for “mouse”

Sequence of mouse TAAR1 (Q923Y8 whole entry): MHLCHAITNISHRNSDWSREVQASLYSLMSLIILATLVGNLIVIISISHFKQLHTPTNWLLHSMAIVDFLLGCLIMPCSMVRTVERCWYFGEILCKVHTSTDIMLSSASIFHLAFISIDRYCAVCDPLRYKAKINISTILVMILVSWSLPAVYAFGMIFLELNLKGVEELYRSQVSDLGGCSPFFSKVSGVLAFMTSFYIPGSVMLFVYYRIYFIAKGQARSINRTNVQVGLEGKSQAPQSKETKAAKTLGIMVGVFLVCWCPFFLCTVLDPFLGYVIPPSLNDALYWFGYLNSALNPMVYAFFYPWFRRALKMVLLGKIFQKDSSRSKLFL

Structure (SMILES) | Ki [1] [µM] | Ki [2] [µM]
O=[N+]([O-])c1cnc(Nc2ccc([C@H]3CNCCO3)cc2)nc1 [Example 75, ((S)-4-Morpholin-2-yl-phenyl)-(5-nitro-pyrimidin-2-yl)-amine] | 0.0141 | 0.228
Cc1cc([C@@H]2CNCCO2)ccc1Nc1ncc(C(F)(F)F)cn1 [Example 166, ((R)-2-Methyl-4-morpholin-2-yl-phenyl)-(5-trifluoromethyl-pyrimidin-2-yl)-amine] | 0.0301 | 0.159
c1ccc(-n2ccc(Nc3ccc([C@H]4CNCCO4)cc3)n2)cc1 [Example 163, ((S)-4-Morpholin-2-yl-phenyl)-(1-phenyl-1H-pyrazol-3-yl)-amine] | 0.0026 | 0.0332
Clc1cc(Nc2ccc([C@H]3CNCCO3)cc2)c(Cl)cn1 [Example 63, (S)-2,5-Dichloro-N-(4-(morpholin-2-yl)phenyl)pyridin-4-amine] | 0.373 | 1.49
Cn1cc(Br)c(Nc2ccc(C3CNCCO3)cc2)n1 (racemic) [Example 143, (RS)-(4-Bromo-1-methyl-1H-pyrazol-3-yl)-(4-morpholin-2-yl-phenyl)-amine] | 0.418 | 0.284
Brc1cnc(Nc2ccc([C@H]3CNCCO3)cc2)c(Br)c1 [Example 61, (S)-3,5-Dibromo-N-(4-(morpholin-2-yl)phenyl)pyridin-2-amine] | 0.0591 | 0.502
CNC(=O)c1cnc(Nc2ccc([C@@H]3CNCCO3)cc2)nc1 [Example 159, 2-((R)-4-Morpholin-2-yl-phenylamino)-pyrimidine-5-carboxylic acid methylamide] | 1.34 | 1.76
CN(c1ccc(Cl)cc1)c1ccc([C@H]2CNCCO2)cc1 [Example 60, (4-Chloro-phenyl)-methyl-((S)-4-morpholin-2-yl-phenyl)-amine] | 0.0222 | 0.758
FC(F)(F)c1cnc(Nc2ccc([C@@H]3CNCCO3)cc2)c(Cl)c1 [Example 185, (R)-3-Chloro-N-(4-(morpholin-2-yl)phenyl)-5-(trifluoromethyl)pyridin-2-amine] | 0.0549 | 0.0888
Fc1ccc(CNc2ccc([C@H]3CNCCO3)cc2)cc1 [Example 31, (4-Fluoro-benzyl)-((S)-4-morpholin-2-yl-phenyl)-amine] | 0.0452 | 0.222
CC(Nc1ccc([C@H]2CNCCO2)cc1)c1ccc(Cl)cc1 (mixture of isomers) [Example 70, [(RS)-1-(4-Chloro-phenyl)-ethyl]-((S)-4-morpholin-2-yl-phenyl)-amine] | 0.523 | 4.07

Further lines, results first:

Ki [1] [µM] | Ki [2] [µM] | Structure (SMILES)
0.0026 | 0.0626 | Cc1cc(C2CNCCO2)ccc1Nc1ccc(Cl)cn1 (racemic) [Example 80, (RS)-(5-Chloro-pyridin-2-yl)-(2-methyl-4-morpholin-2-yl-phenyl)-amine]
0.0006 | 0.0222 | Cc1cc(Nc2ccc([C@H]3CNCCO3)cc2)ncc1Cl [Example 83, (S)-5-Chloro-4-methyl-N-(4-(morpholin-2-yl)phenyl)pyridin-2-amine]
0.0116 | 0.127 | CCOc1cnc(Nc2ccc([C@@H]3CNCCO3)cc2)nc1 [Example 105, (5-Ethoxy-pyrimidin-2-yl)-((R)-4-morpholin-2-yl-phenyl)-amine]
0.0031 | 0.0422 | Fc1cnc(Nc2ccc([C@@H]3CNCCO3)cc2)nc1C1CC1 [Example 190, (4-Cyclopropyl-5-fluoro-pyrimidin-2-yl)-((R)-4-morpholin-2-yl-phenyl)-amine]
0.0031 | 0.0315 | Fc1cc(Nc2ncc(C(F)(F)F)cn2)ccc1[C@H]1CNCCO1 [Example 197, (S)—N-(3-Fluoro-4-(morpholin-2-yl)phenyl)-5-(trifluoromethyl)pyrimidin-2-amine]
0.0032 | 0.0025 | Fc1cc(Nc2ncc(F)c(OCC(F)(F)F)n2)ccc1[C@@H]1CNCCO1 [Example 209, (R)-5-Fluoro-N-(3-fluoro-4-(morpholin-2-yl)phenyl)-4-(2,2,2-trifluoroethoxy)pyrimidin-2-amine]
0.0014 | 0.0438 | Clc1ccc(Nc2ccc([C@@H]3CNCCO3)cc2)nc1 [Example 69, (R)-5-Chloro-N-(4-(morpholin-2-yl)phenyl)pyridin-2-amine]
0.0055 | 0.259 | COc1cnc(Nc2ccc([C@H]3CNCCO3)cc2)nc1 [Example 12, (5-Methoxy-pyrimidin-2-yl)-((S)-4-morpholin-2-yl-phenyl)-amine]
0.0122 | 0.504 | Fc1cnc(Nc2ccc([C@H]3CNCCO3)cc2)nc1 [Example 14, (5-Fluoro-pyrimidin-2-yl)-((S)-4-morpholin-2-yl-phenyl)-amine]
0.0026 | 0.188 | Fc1cc(Nc2ccc([C@H]3CNCCO3)cc2)cnc1Cl [Example 40, (S)-6-Chloro-5-fluoro-N-(4-(morpholin-2-yl)phenyl)pyridin-3-amine]
0.0049 | 0.004 | Fc1cc(Nc2ncc(C(F)(F)F)cn2)ccc1[C@@H]1CNCCO1 [Example 196, (R)—N-(3-Fluoro-4-(morpholin-2-yl)phenyl)-5-(trifluoromethyl)pyrimidin-2-amine]
0.0015 | 0.0233 | FC(F)(F)c1ccc(Nc2ccc([C@H]3CNCCO3)cc2)nc1 [Example 11, (S)—N-(4-(Morpholin-2-yl)phenyl)-5-(trifluoromethyl)pyridin-2-amine]
0.0094 | 0.174 | COc1cc(OC)nc(Nc2ccc([C@@H]3CNCCO3)cc2)n1 [Example 183, (4,6-Dimethoxy-pyrimidin-2-yl)-((R)-4-morpholin-2-yl-phenyl)-amine]
0.0005 | 0.0325 | Clc1ccc(Nc2ccc(C3CNCCO3)cc2)cc1 (racemic) [Example 8, (RS)-(4-Chloro-phenyl)-(4-morpholin-2-yl-phenyl)-amine]
0.0042 | 0.0181 | Clc1ccc(CCNc2ccc([C@H]3CNCCO3)cc2)cc1 [Example 34, [2-(4-Chloro-phenyl)-ethyl]-((S)-4-morpholin-2-yl-phenyl)-amine]
0.0037 | 0.0026 | FC(F)(F)COc1cnc(Nc2ccc([C@@H]3CNCCO3)cc2)nc1 [Example 137, ((R)-4-Morpholin-2-yl-phenyl)-[5-(2,2,2-trifluoro-ethoxy)-pyrimidin-2-yl]-amine]
0.0008 | 0.0101 | FC(F)(F)c1cc(Nc2ccc([C@H]3CNCCO3)cc2)ncc1Cl [Example 82, (S)-5-Chloro-N-(4-(morpholin-2-yl)phenyl)-4-(trifluoromethyl)pyridin-2-amine]

From US8802673B2, “Heterocyclic amine derivatives” (Hoffmann-La Roche Inc, priority 2011, dated 2014)
